The source of these data is patent publication US8846981B2, “1,1-di[(alkylphenoxy)ethoxy]cyclohexanes” (Southern Lithoplate, Inc., priority 2012, dated 2014).

Data set [1] can be described thus: Solubility of the ketals in water / deionized water. The class given is physicochemical. Conditions: for Solubility in water: product or starting alcohol as described in the example. An excerpt: A typical aqueous alkaline developer for a positive-working, lithographic printing plate contains roughly 5% by weight of NaOH or KOH. A 1.0 M NaOH solution is equivalent to 4% by weight of NaOH.

A short description of data set [2]: Acid decomposition of the ketal back to starting alcohol and cyclohexanone. The following applies: addition of an acid, such as p-toluenesulfonic acid. The class given is physicochemical. How it is done:
A stirred mixture of 72 g (0.5 mol) of 1,1-dimethoxycyclohexane, 250 g (1.0 mol) of 2-[4-(1,1,3,3-tetramethylbutyl)phenoxy]ethanol, 0.080 g of p-toluenesulfonic acid, and 300 ml of toluene was reacted in a flask with a thermometer and fractional distillation column at 120° C. for 8 hours with continuous stirring. The low boiling methanol that was produced during the reaction was removed. The reaction mixture was cooled to room temperature and washed with a small amount of an aqueous 1.0 M sodium hydroxide solution until the mixture was neutralized. The reaction mixture was then washed with a saturated sodium chloride solution to remove any remaining water in the toluene. Next the reaction mixture was dried over anhydrous potassium carbonate to remove any minor amounts of water and to make sure all of the p-toluenesulfonic acid was removed. The resulting mixture was filtered. The filtrate was evaporated under reduced pressure at 60° C. until all of the toluene was removed. […] The starting surfactant is water-insoluble. This ketal with a theoretical molecular weight of 580 has the structural formula shown below.

The conditions of data set [3]: related art; cited from earlier work.
Data set [4] is described as follows: Solubility in a 1.0 M NaOH water solution. The following applies: 1.0 M NaOH water solution (equivalent to 4% by weight NaOH). The class given is physicochemical. An excerpt:
The physical appearance of the ketals from Examples 1-4 and from Comparative Examples A-B are given in the following table, along with their solubility in deionized water and in a 1.0 M NaOH water solution. A typical aqueous alkaline developer for a positive-working, lithographic printing plate contains roughly 5% by weight of NaOH or KOH. A 1.0 M NaOH solution is equivalent to 4% by weight of NaOH.

The conditions of data set [5]: related art; cited from earlier work. This is another data set of the same source.

As for `CC(C)(C)CC(C)(C)c1ccc(OCCO)cc1` [2-[4-(1,1,3,3-tetramethylbutyl)phenoxy]ethanol], the “Solubility in water” value in data set [1] is “water-insoluble”.

Consider `CC(C)(C)c1ccc(OCCO)cc1` [2-[4-(1,1-dimethylethyl)phenoxy]ethanol], for which the “Solubility in water” value in data set [1] was “water-insoluble”.

Turning to `OCCOc1ccccc1` [2-phenoxyethanol], the “Solubility in water” value in data set [1] is listed as “low water solubility”.

In the case of `c1ccc(OCCOC2(OCCOc3ccccc3)CCCCC2)cc1` [A, 1,1-di(2-phenoxyethoxy)cyclohexane], the Decomposition by acid entry in data set [2] is “can be converted back to the starting alcohol and cyclohexanone”. Besides, the “Solubility in water (background statement, words)” value in data set [3] is on record as “water insoluble”. The “Solubility in 1.0M NaOH” value in data set [4] is “insoluble”. The “Decomposition by strong acids (background statement)” value in data set [5] was “decompose this ketal into cyclohexanone and 2-phenoxyethanol”. In data set [1] (deionized water), the “Solubility in DI Water” value is reported as “insoluble”. In addition, in data set [1], the “Solubility in water” value is on record as “water-insoluble”.
